The values below come from patent US20080176906A1, “Substituted Pyrrole Derivative” (Takeda Pharmaceutical Company Limited, priority 2004, published 2008).

Each structure is given as a SMILES string. Numbering of substitutions follows the chain as printed.

The target of assay [1] is T1, wild-type androgen receptor (AR) (Homo sapiens, UniProt P10275).
T1 sequence (P10275 1-920): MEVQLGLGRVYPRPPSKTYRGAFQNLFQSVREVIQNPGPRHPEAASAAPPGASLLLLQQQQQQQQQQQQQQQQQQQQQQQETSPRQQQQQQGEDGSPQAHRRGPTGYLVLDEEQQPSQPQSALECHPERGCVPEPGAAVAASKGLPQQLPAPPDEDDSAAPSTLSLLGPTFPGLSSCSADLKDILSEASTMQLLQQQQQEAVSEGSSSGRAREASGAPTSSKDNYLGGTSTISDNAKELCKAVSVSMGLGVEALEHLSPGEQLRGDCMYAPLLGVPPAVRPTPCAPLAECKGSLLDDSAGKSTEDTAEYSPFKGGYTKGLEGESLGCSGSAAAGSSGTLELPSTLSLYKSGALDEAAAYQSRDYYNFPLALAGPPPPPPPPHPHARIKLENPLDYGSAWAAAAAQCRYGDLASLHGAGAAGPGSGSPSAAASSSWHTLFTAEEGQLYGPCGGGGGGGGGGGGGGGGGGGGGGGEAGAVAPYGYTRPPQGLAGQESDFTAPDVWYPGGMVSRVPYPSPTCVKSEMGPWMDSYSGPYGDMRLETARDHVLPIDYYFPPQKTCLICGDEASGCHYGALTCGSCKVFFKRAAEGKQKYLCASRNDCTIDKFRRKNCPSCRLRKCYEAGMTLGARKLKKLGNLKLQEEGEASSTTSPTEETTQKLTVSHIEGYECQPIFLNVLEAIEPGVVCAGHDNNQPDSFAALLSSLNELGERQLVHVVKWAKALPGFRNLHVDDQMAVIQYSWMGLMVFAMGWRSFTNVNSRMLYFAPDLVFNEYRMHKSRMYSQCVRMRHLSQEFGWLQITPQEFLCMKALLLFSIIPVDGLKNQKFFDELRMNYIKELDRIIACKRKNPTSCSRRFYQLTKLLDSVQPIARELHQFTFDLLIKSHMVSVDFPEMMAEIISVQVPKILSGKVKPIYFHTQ
Description: AR binding inhibitory test (wild type). The following applies: 1 μM compound, 3 nM miboleron, 4° C. for 3 hours, dextran/charcoal B/F separation; read-out: Inhibitory rate (%) at 1 μM, Wild type. As to the method: 3 nM miboleron and 1 μM of a compound was added to a solution containing a wild-type androgen receptor (AR) or an androgen receptor (AR) having a LNCaP type mutation, this was incubated at 4° C. for 3 hours, and B(Bound)/F(Free) separation was performed by a dextran/charcoal method. A label count of B was measured, and an inhibition rate of the compound was calculated.

The subject of assay [2] is human prostate cancer cell LNCaP-FGC. Description: Prostate specific antigen (PSA) production inhibition in prostate cancer cell. It counts as cell-based. The following applies: 72 h, 1 μM compound, testosterone 1 ng/mL, three days, PSA in culture supernatant by ELISA, testosterone non-added group 100%, testosterone-added group 0%, read-out: PSA production Inhibitory rate (%) at 1 μM. As to the method: A human prostate cancer cell LNCaP-FGC was inoculated on a 96-well plate at 5000 cells/100 μL/well and, on the next day, testosterone having the final concentration of 1 ng/mL and 1 μM of a compound were added. Three days after addition, the PSA concentration in the culture supernatant was measured by ELISA, and a PSA production inhibition rate was calculated, letting the rate of a testosterone non-added group to be 100%, and letting the rate of a testosterone-added group to be 0%.

Another assay has as its system mouse prostate. The experiment in a line: Test of reduction in weight of mouse prostate. The class given is in vivo. Particulars: 8 week old male mouse, drug non-addition 0%, castration 100%. The text has this: A rate of reduction in a prostate weight is shown in Table 5, letting at drug non-addition to be 0%, and letting at castration to be 100%.
The target of another assay is T2, mutated AR (W741C) (Homo sapiens, UniProt P10275, W742C).
T2 construct: expressed in transfected cells; host or cells: Cos-7
T2 sequence (P10275 1-920 W742C): T1 sequence (P10275 1-920) with W742C
The experiment in a line: AR transcription inhibition test (luciferase reporter in Cos-7). It counts as cell-based. Particulars: 0.1 μM compound, DHT 0.04 μM, 24 hours, luciferase activity, relative to a control. The method, then:
5,000,000 Cells of Cos-7 was inoculated on a flask, and cultured in a culturing solution (DMEM+10% Dextran Charcoal (DCC)-Fetal Bovine Serum (FBS)+2 mM glutamine) for 24 hours, and a vector DNA in which mutated AR (W741C) had been inserted, and a vector DNA in which a luciferase gene had been connected downstream of an androgen-responsive promoter were transfected by a liposome method. After two hours, the medium was exchanged, the cells were cultured for 3 hours, DHT (dihydrotestosterone) having the final concentration of 0.04 μM and an assessment compound having the final concentration of 0.1 μM were added, and the cells were cultured for 24 hours, and luciferase activity was measured to investigate AR transcription inhibition activity of the assessment compound.
Background: A reporter such as luciferase makes a cellular process visible.

As for `Cc1c(C#N)c(-c2ccc(C#N)cc2)c(C)n1Cc1cnc(Cl)c(CO)c1` [Compound 1, 1-{[6-Chloro-5-(hydroxymethyl)pyridin-3-yl]methyl}-4-(4-cyanophenyl)-2,5-dimethyl-1H-pyrrole-3-carbonitrile], the inhibition at 1 µM in assay [1] amounted to 94%; in assay [2], 99%. Moreover, the “Reduction rate (%) of prostate weight” value in the assay with mouse prostate (orally 50 mg/kg/day for 7 days) is listed as 74%. For the same compound, on mutated AR (W741C), the “AR transcription Inhibitory rate (%) at 0.1 μM” value amounted to 49%.
Take `CC(O)(CS(=O)(=O)c1ccc(F)cc1)C(=O)Nc1ccc(C#N)c(C(F)(F)F)c1` (stereo not drawn) [bicalutamide, reference compound]: the inhibition at 1 µM in assay [2] was 58%. For the same compound, the “Reduction rate (%) of prostate weight” value in the assay on mouse prostate (orally 100 mg/kg/day (bicalutamide) for 7 days) is recorded as 40%.
